# From patent publication US20090076067A1, “PHARMACEUTICAL COMPOSITION COMPRISING AZARHODACYANINE COMPOUND AS ACTIVE INGREDIENT” (priority 2005, published 2009)
# Legend:
# [1] = system: Plasmodium berghei NK 65 strain; test: animal or person; format: in vivo; details: for Survival days (mean survival days, treatment group minus control group) / Recovery Rate (suppression): 4 days; for Recovery Rate (suppression): P. berghei infected ICR mice; for Acute toxicity in treated mice: 25 mg/kg/day dose
# Description: For a test to evaluate therapeutic effect of the compound, 4-day suppressive test which is commonly used for in vivo test to evaluate activity of anti-malaria compound was used. In this experiment, rodent malaria protozoa (Plasmodium berghei NK 65 strain) were used. The infected blood was collected from 5-weeks age (SPF) ICR strain male mouse which were infected intraperitoneally and successively cultured. From the caudal vein of the infected mouse, blood was collected to calculate infection rate. After confirming that infection rate was adequately elevated (10% to 20% infection), the malaria infected blood was collected from the heart of the mouse. The infection rate and count of the red blood cells (cells/mL) were calculated. The infected red blood cell was diluted with PBS buffer to achieve […] protozoa per 0.2 mL dose. The infected cells were injected to the caudal vein of uninfected mouse (ICR strain, male, 5-weeks age) to cause infection. Five mice were made into one group, and the test compound was administered in predefined concentration. From 2 hours after infection, the compound was administered every 24 hours for straight 4 days.
# The compound of the invention to be used in this test was dissolved in saline (Otsuka Pharmaceutical Co., Ltd.) to obtain test solution of predefined concentration. When the compound was not dissolved in saline, it was dissolved in SSV (saline containing 0.5% sodium=carboxymethyl cellulose, 0.5% benzyl alcohol, 0.4% Tween 80) to prepare test solution. For the control group (non-treatment group), only saline (Otsuka) was administered. Positive controls S-1 to S-5 were dissolved in saline (Otsuka) or SSV in predetermined concentration to prepare test solution. When the compound was not dissolved in saline, it was dissolved in SSV. After measuring weight of each mouse, the dose for each mouse was calculated to achieve 5.0 to 40 mg concentration for weight1 kg.
# Five mice were made into one group, and the test compound was administered intraperitoneally at predefined concentration. From 2 hours after infection, the compound was administered every 24 hours for straight 4 days. Subsequent to the 24 hours after last treatment, blood was collected from the tail of the mouse to prepare thin layer smear in order to count malaria protozoa infection in the treatment group and the control group under microscope. The mice showing maximum value and minimum value were excluded from the average calculation (average was calculated for three mice), to determine malaria protozoa infection rate (Parasitemia).
# Using malaria protozoa infection rate thus calculated, recovery rate obtained from the test compound (suppression) was determined.
# Recovery rate: suppression(%)=(b−a)/b×100 a: Protozoa infection rate in the treatment group b: Protozoa infection rate in the control group Mean survival days: MSD(day)=c−d c: Average days from the initial treatment (date of malaria infection) to the date of death for the treatment group (5 mice) d: Average days from the date of malaria infection to the date of death for the non-treatment (control) group (5 mice) […]
# Tables 5 to 7 illustrate the recovery rate (%) and survival days (day) of malaria infected mice treated with intraperitoneal injection of the test compound and the control compound at predefined concentration. The meaning of symbols in the table is as follows.
# [2] = system: Plasmodium Falciparum k1 strain; test: Chloroquine-resistant tropical malaria protozoa proliferation inhibition screening test; format: cell-based; details: chloroquine-resistant K1 strain; 3H-hypoxanthine uptake
# Description: In this experiment, Plasmodium Falciparum k1 strain protozoa were used. The medium used in the experiment was filter-sterilized RPMI-1640 medium. To the medium human serum was added to achieve 5% concentration. The protozoa was cultured under condition of O2 concentration 3%, CO2 concentration 4%, N2 concentration 93%, and temperature 37° C.
# The cultured malaria infected red blood cells were collected by centrifugation, diluted with non-infected red blood cells, to achieve initial infection rate 0.15%. The hematocrit was 2.5%.
# To each well in a 96-well culture plate, 200 μL malaria infected culture was added, and either test solution containing test compound at predefined concentration or DMSO having no test compound was added. Each test solution was prepared in duplicate. After 48 hours culture under 37° C., hypoxanthine labeled with radioactive tritium (^3H) of 0.5 μCi was added to each well. After culturing under same condition for 24 hours, the product was collected on a glass fiber filter and washed. The intensity of radiation was measured by Beta plate liquid scintillation counter (Wallac Inc.), to determine malaria protozoa infection rate in test compound samples and control samples.
# Using the malaria protozoa infection rate, the proliferation inhibition rate was calculated according to the following equation to determine 50% proliferation inhibition concentration (EC50).
# Proliferation inhibition rate(%)={1−(b−a)/(c−a)}×100
# a: initial infection rate b: infection rate of test compound solution c: infection rate of the control
# [3] = system: Rat-derived L6 cells (rat skeletal myoblast cell); test: Rat L6 cell proliferation inhibition test; format: cell-based; details: Table 1, 72 hours, Alamar Blue
# Description: Rat-derived L6 cells (rat skeletal myoblast cell) were used for this test. […] The sample was cultured under CO2 concentration 5% and temperature 37° C. Either the composition of the invention or control was dissolved into DMSO, to prepare test solutions having predefined concentration.
# The samples were precultured until logarithmic growth phase was reached. Then the culture was transferred to each well in a 96-well culture plate, and either test solution containing test compound at predefined concentration or DSMO without compound was added. The test solution was duplicated.
# The plate was cultured in an incubator for 72 hours, to examine proliferation inhibition activity. The activity was examined as follows. Alamar Blue water solution 10 μL was added to each well, and culture was continued for 2 hours. Next, the culture plate was mounted on a fluorescence microplate reader (Spectramax Gemeni XS; Molecular Devices Corporation, U.S.), and irradiated with excitation wavelength 536 nm to determine fluorescence at 588 nm. The survival rate of L6 cells in the test solution sample and control sample was calculated.
# Proliferation inhibition rate(%)={(C−A)/(B−A)}×100
# A: Initial cell count B: Cell count in control after 3 days C: Cell count in test solution after 3 days
# [4] = Plasmodium berghei, ip, 96 h, read-out: Recovery Rate (suppression)
# [5] = dose 25 mg/kg/d intraperitoneally
# [6] = dose 5.0 mg/kg/d intraperitoneally
smiles,measurement,setting,value
"CCn1c(=O)/c(=C2\Sc3ccccc3N2C)s/c1=C\c1cccc[n+]1CC [Compound S-1, reference compound]",inhibition in vivo at 10 mg/kg/day,[1]; [4],30%
same,Toxicity noted,[1]; [5],toxic
CCN1C(=O)/C(=C2\C=Cc3ccccc3N2C)S/C1=N\c1cccc[n+]1C [Compound A-14],inhibition in vivo at 10 mg/kg/day,[1]; [4],64.5%
CCn1c(=O)/c(=C2\C=CC=CN2C)s/c1=C1\S/C(=N\c2scc[n+]2C)N(Cc2ccccc2)C1=O [Compound B-21],"Survival days (mean survival days, treatment group minus control group)",[1]; [5],7.0 days
same,Recovery Rate (suppression),[1]; [5],80.4%
CCn1c(=O)/c(=C2\C=CC=CN2C)s/c1=C1\S/C(=N\c2sc3cc(Cl)ccc3[n+]2C)N(c2ccc(OC)cc2)C1=O [Compound B-17],inhibition in vivo at 25 mg/kg/day,[1]; [4],73.1%
same,"Survival days (mean survival days, treatment group minus control group)",[1]; [5],6.8 days
CCN1C(=O)/C(=c2/s/c(=C3/C=CC=CN3C)c(=O)n2CC)S/C1=N\c1scc[n+]1C [Compound B-19],EC50 P. falciparum K1,[2],0.0166 µg/mL
same,EC50 cytotoxicity L6,[3],27.92 µg/mL
CCn1c(=O)/c(=C2\C=CC=CN2C)s/c1=C1\S/C(=N\c2sc3cc(Cl)ccc3[n+]2C)N(Cc2ccccc2)C1=O [Compound B-16],inhibition in vivo at 20 mg/kg/day,[1]; [4],97.4%
CCN1C(=O)/C(=c2/s/c(=C3/SCCN3C)c(=O)n2CC)S/C1=N\c1sc2ccccc2[n+]1C [Compound B-31],"Survival days (mean survival days, treatment group minus control group)",[1]; [5],1.7 days
same,Recovery Rate (suppression),[1]; [5],90.6%
CCN1C(=O)/C(=C2\C=CC=CN2C)S/C1=N\c1cc[n+](C)c2cc(Cl)ccc12 [Compound A-15],inhibition in vivo at 25 mg/kg/day,[1]; [4],60.3%
same,"Survival days (mean survival days, treatment group minus control group)",[1]; [5],2.0 days
C=CCN1C(=O)/C(=c2/s/c(=C3/C=CC=CN3C)c(=O)n2CC)S/C1=N\c1scc[n+]1C [Compound B-40],EC50 cytotoxicity L6,[3],27.38 µg/mL
CCn1c(=O)/c(=C2\C=CC=CN2C)s/c1=C1\S/C(=N\c2sc3cc(Cl)ccc3[n+]2C)N(c2ccccc2)C1=O [Compound B-11],inhibition in vivo at 25 mg/kg/day,[1]; [4],82.7%
CCn1c(=O)/c(=C2\C=CC=CN2C)s/c1=C1\S/C(=N\c2scc(-c3ccc(Cl)cc3)[n+]2C)N(c2ccccc2)C1=O [Compound B-13],inhibition in vivo at 25 mg/kg/day,[1]; [4],95.6%
C=CCN1C(=O)/C(=c2/s/c(=C3/SCCN3C)c(=O)n2CC)S/C1=N\c1scc[n+]1C [Compound B-41],"Survival days (mean survival days, treatment group minus control group)",[1]; [5],1.3 days
same,Recovery Rate (suppression),[1]; [5],58.5%
CCN1C(=O)/C(=c2/s/c(=C3/SCCN3C)c(=O)n2CC)S/C1=N\c1scc[n+]1C [Compound B-27],"Survival days (mean survival days, treatment group minus control group)",[1]; [5],2.0 days
same,Recovery Rate (suppression),[1]; [5],55.4%
CCN1C(=O)/C(=C/C=C2\Sc3ccccc3N2C)S/C1=N\c1c(O)ccc[n+]1C [Compound C-3],Recovery Rate (suppression),[1]; [6],43.9%
"C=CCn1c(=O)/c(=C2\Sc3ccccc3N2C)s/c1=C\c1cccc[n+]1C [Compound S-2, reference compound]",Acute toxicity in treated mice,[1],caused death
same,inhibition in vivo at 10 mg/kg/day,[1]; [4],27%
C=CCN1C(=O)/C(=c2/s/c(=C3/C=CC=CN3C)c(=O)n2CC)S/C1=N\c1sc2cc(Cl)ccc2[n+]1C [Compound B-38],Recovery Rate (suppression),[1]; [5],95.7%
CCn1c(=O)/c(=C2\SCCN2C)s/c1=C1\S/C(=N\c2scc[n+]2C)N(Cc2ccccc2)C1=O [Compound B-23],"Survival days (mean survival days, treatment group minus control group)",[1]; [5],7.0 days
same,Recovery Rate (suppression),[1]; [5],85.1%
"CCn1c(=O)/c(=c2/s/c(=C3/Sc4ccccc4N3C)c(=O)n2CC)s/c1=C\c1sc2ccccc2[n+]1C [Compound S-5, reference compound]",inhibition in vivo at 5 mg/kg/day,[1]; [4],41%
CCn1c(=O)/c(=c2\nc3c(o2)=CC=CN3C)s/c1=C1\S/C(=N\c2sc3cc(Cl)ccc3[n+]2C)N(Cc2ccccc2)C1=O [Compound B-18],"Survival days (mean survival days, treatment group minus control group)",[1]; [5],7.0 days
same,Recovery Rate (suppression),[1]; [5],22.39%
CCn1c(=O)/c(=C2\SCCN2C)s/c1=C1\S/C(=N\c2sc3cc(Cl)ccc3[n+]2C)N(c2ccc(OC)cc2)C1=O [Compound B-26],"Survival days (mean survival days, treatment group minus control group)",[1]; [5],2.0 days
same,Recovery Rate (suppression),[1]; [5],64.3%
CCN1C(=O)/C(=C/C=C2\Sc3ccccc3N2C)S/C1=N\c1scc(-c2ccc(Cl)cc2)[n+]1C [Compound C-4],inhibition in vivo at 5 mg/kg/day,[1]; [4],37.9%
"C=C[C@H]1C[N@@]2CC[C@H]1C[C@H]2[C@H](O)c1ccnc2ccc(OC)cc12 [Quinine, reference compound]",inhibition in vivo at 10 mg/kg/day,[1]; [4],18.6%
same,"Survival days (mean survival days, treatment group minus control group)",[1]; dose 10 mg/kg/d intraperitoneally,1.0 days
"CCn1c(=O)/c(=C2\Sc3ccc4ccccc4c3N2C)s/c1=C\c1cccc[n+]1C [Compound S-4, reference compound]",Acute toxicity in treated mice,[1],caused death
same,inhibition in vivo at 5 mg/kg/day,[1]; [4],17.1%
same,inhibition in vivo at 10 mg/kg/day,[1]; [4],36%
same,Toxicity noted,[1]; [5],toxic
"C=CCn1c(=O)/c(=C2\C=CC=CN2C)s/c1=c1\s/c(=C\c2cccc[n+]2C)n(CC)c1=O [Compound S-6, reference compound]",inhibition in vivo at 50 mg/kg/day,[1]; [4],25.9%
same,"Survival days (mean survival days, treatment group minus control group)",[1]; dose 50 mg/kg/d intraperitoneally,0 days
CCN1C(=O)/C(=C/C=C2\Sc3ccccc3N2C)S/C1=N\c1sc2cc(Cl)ccc2[n+]1C [Compound C-2],EC50 P. falciparum K1,[2],0.02495 µg/mL
same,EC50 cytotoxicity L6,[3],11.33 µg/mL
same,Recovery Rate (suppression),[1]; [6],32.1%
CCN1C(=O)/C(=c2/s/c(=c3/nc4c(o3)=CC=CN4C)c(=O)n2CC)S/C1=N\c1scc[n+]1C [Compound B-20],EC50 P. falciparum K1,[2],0.017 µg/mL
same,EC50 cytotoxicity L6,[3],69.34 µg/mL
same,"Survival days (mean survival days, treatment group minus control group)",[1]; [5],6.3 days
same,Recovery Rate (suppression),[1]; [5],56.1%
